# According to patent US8449898B2 (priority 2007, dated 2013):
# Where two headings read alike, the source gives them in different places.
# Experiments:
# [1] = system: Phytophthora infestans (the causal agent of tomato late blight); assay: whole plant or invertebrate; assay type: in vivo; conditions: for TLB Obsd: Table D; for TLB Obsd (observed effect, tomato late blight): component (b) alone
# [2] = system: Pseudoperonospora cubensis (the causal agent of cucumber downy mildew); assay: Test B: cucumber downy mildew, preventive spray on cucumber seedlings; assay type: in vivo
compound,measurement,setting,value
N#Cc1c(Cl)c(Cl)c(Cl)c(C#N)c1Cl [chlorothalonil],pest or weed control at 0.08 ppm,"[1]; Phytophthora infestans, read-out: TLB Obsd (observed effect, tomato late blight), component (b) alone, 0.08 ppm",14%
same,pest or weed control at 0.4 ppm,"[1]; Phytophthora infestans, read-out: TLB Obsd (observed effect, tomato late blight), component (b) alone, 0.4 ppm",14%
same,pest or weed control at 2 ppm,"[1]; Phytophthora infestans, read-out: TLB Obsd (observed effect, tomato late blight), component (b) alone, 2 ppm",21%
same,pest or weed control at 10 ppm,"[1]; Phytophthora infestans, read-out: TLB Obsd (observed effect, tomato late blight), component (b) alone, 10 ppm",100%
same,pest or weed control at 40 ppm,"[1]; Phytophthora infestans, read-out: TLB Obsd (observed effect, tomato late blight), component (b) alone, 40 ppm",100%
same,pest or weed control at 0.016 ppm,"[1]; Phytophthora infestans, read-out: TLB Obsd, Table E, component (b) alone at 0.016 ppm",31%
same,pest or weed control at 0.08 ppm,"[1]; Phytophthora infestans, read-out: TLB Obsd, Table E, component (b) alone at 0.08 ppm",0%
same,pest or weed control at 0.4 ppm,"[1]; Phytophthora infestans, read-out: TLB Obsd, Table E, component (b) alone at 0.4 ppm",73%
same,pest or weed control at 2 ppm,"[1]; Phytophthora infestans, read-out: TLB Obsd, Table E, component (b) alone at 2 ppm",100%
same,pest or weed control at 10 ppm,"[1]; Phytophthora infestans, read-out: TLB Obsd, Table E, component (b) alone at 10 ppm",100%
same,pest or weed control at 0.016 ppm,"[2]; Pseudoperonospora cubensis, Table F, component (b) alone at 0.016 ppm, read-out: CDM Obsd",47%
same,pest or weed control at 0.08 ppm,"[2]; Pseudoperonospora cubensis, Table F, component (b) alone at 0.08 ppm, read-out: CDM Obsd",33%
same,pest or weed control at 0.4 ppm,"[2]; Pseudoperonospora cubensis, Table F, component (b) alone at 0.4 ppm, read-out: CDM Obsd",47%
same,pest or weed control at 2 ppm,"[2]; Pseudoperonospora cubensis, Table F, component (b) alone at 2 ppm, read-out: CDM Obsd",99%
same,pest or weed control at 10 ppm,"[2]; Pseudoperonospora cubensis, Table F, component (b) alone at 10 ppm, read-out: CDM Obsd",100%
same,pest or weed control at 0.08 ppm,"[2]; Pseudoperonospora cubensis, component (b) alone, 0.08 ppm, read-out: CDM Obsd (observed effect, cucumber downy mildew)",0%
same,pest or weed control at 0.4 ppm,"[2]; Pseudoperonospora cubensis, component (b) alone, 0.4 ppm, read-out: CDM Obsd (observed effect, cucumber downy mildew)",0%
same,pest or weed control at 2 ppm,"[2]; Pseudoperonospora cubensis, component (b) alone, 2 ppm, read-out: CDM Obsd (observed effect, cucumber downy mildew)",0%
same,pest or weed control at 10 ppm,"[2]; Pseudoperonospora cubensis, component (b) alone, 10 ppm, read-out: CDM Obsd (observed effect, cucumber downy mildew)",70%
same,pest or weed control at 40 ppm,"[2]; Pseudoperonospora cubensis, component (b) alone, 40 ppm, read-out: CDM Obsd (observed effect, cucumber downy mildew)",71%
[Cu+2].[OH-].[OH-] [copper hydroxide],TLB Obsd,[1]; component (b) alone at 2 ppm,32%
same,TLB Obsd,[1]; component (b) alone at 10 ppm,48%
same,TLB Obsd,[1]; component (b) alone at 40 ppm,40%
same,TLB Obsd,[1]; component (b) alone at 200 ppm,70%
same,TLB Obsd,[1]; component (b) alone at 500 ppm,91%
same,"TLB Obsd (observed effect, tomato late blight)",[1]; 2 ppm,22
same,"TLB Obsd (observed effect, tomato late blight)",[1]; 10 ppm,36
same,"TLB Obsd (observed effect, tomato late blight)",[1]; 40 ppm,50
same,"TLB Obsd (observed effect, tomato late blight)",[1]; 200 ppm,71
same,"TLB Obsd (observed effect, tomato late blight)",[1]; 500 ppm,77
same,CDM Obsd,"[2]; Table D, component (b) alone at 2 ppm",53%
same,CDM Obsd,"[2]; Table D, component (b) alone at 10 ppm",63%
same,CDM Obsd,"[2]; Table D, component (b) alone at 40 ppm",85%
same,CDM Obsd,"[2]; Table D, component (b) alone at 200 ppm",85%
same,CDM Obsd,"[2]; Table D, component (b) alone at 500 ppm",88%
same,CDM Obsd,[2]; component (b) alone 2 ppm (Compound 1 0 ppm),47%
same,CDM Obsd,[2]; component (b) alone 10 ppm (Compound 1 0 ppm),47%
same,CDM Obsd,[2]; component (b) alone 40 ppm (Compound 1 0 ppm),47%
same,CDM Obsd,[2]; component (b) alone 200 ppm (Compound 1 0 ppm),85%
same,CDM Obsd,[2]; component (b) alone 500 ppm (Compound 1 0 ppm),93%
same,"CDM Obsd (observed effect, cucumber downy mildew)","[2]; component (b) alone, 2 ppm",0
same,"CDM Obsd (observed effect, cucumber downy mildew)","[2]; component (b) alone, 10 ppm",0
same,"CDM Obsd (observed effect, cucumber downy mildew)","[2]; component (b) alone, 40 ppm",0
same,"CDM Obsd (observed effect, cucumber downy mildew)","[2]; component (b) alone, 200 ppm",29
same,"CDM Obsd (observed effect, cucumber downy mildew)","[2]; component (b) alone, 500 ppm",37
Cc1ccc(-c2c(Cl)nc(C#N)n2S(=O)(=O)N(C)C)cc1 [cyazofamid],pest or weed control at 0.016 ppm,"[1]; Phytophthora infestans, read-out: TLB Obsd, component (b) alone, 0.016 ppm",25%
same,pest or weed control at 0.08 ppm,"[1]; Phytophthora infestans, read-out: TLB Obsd, component (b) alone, 0.08 ppm",52%
same,pest or weed control at 0.4 ppm,"[1]; Phytophthora infestans, read-out: TLB Obsd, component (b) alone, 0.4 ppm",58%
same,pest or weed control at 2 ppm,"[1]; Phytophthora infestans, read-out: TLB Obsd, component (b) alone, 2 ppm",100%
same,pest or weed control at 10 ppm,"[1]; Phytophthora infestans, read-out: TLB Obsd, component (b) alone, 10 ppm",100%
same,pest or weed control at 0.016 µg/mL,"[2]; Pseudoperonospora cubensis, component (b) alone 0.016 ppm (Compound 1 0 ppm), read-out: CDM Obsd",47%
same,pest or weed control at 0.08 µg/mL,"[2]; Pseudoperonospora cubensis, component (b) alone 0.08 ppm (Compound 1 0 ppm), read-out: CDM Obsd",100%
same,pest or weed control at 0.4 µg/mL,"[2]; Pseudoperonospora cubensis, component (b) alone 0.4 ppm (Compound 1 0 ppm), read-out: CDM Obsd",100%
same,pest or weed control at 2 µg/mL,"[2]; Pseudoperonospora cubensis, component (b) alone 2 ppm (Compound 1 0 ppm), read-out: CDM Obsd",100%
same,pest or weed control at 10 µg/mL,"[2]; Pseudoperonospora cubensis, component (b) alone 10 ppm (Compound 1 0 ppm), read-out: CDM Obsd",100%
same,pest or weed control at 0.016 ppm,"[2]; Pseudoperonospora cubensis, component (b) alone, 0.016 ppm, read-out: CDM Obsd",43%
same,pest or weed control at 0.08 ppm,"[2]; Pseudoperonospora cubensis, component (b) alone, 0.08 ppm, read-out: CDM Obsd",57%
same,pest or weed control at 0.4 ppm,"[2]; Pseudoperonospora cubensis, component (b) alone, 0.4 ppm, read-out: CDM Obsd",100%
same,pest or weed control at 2 ppm,"[2]; Pseudoperonospora cubensis, component (b) alone, 2 ppm, read-out: CDM Obsd",100%
same,pest or weed control at 10 ppm,"[2]; Pseudoperonospora cubensis, component (b) alone, 10 ppm, read-out: CDM Obsd",100%
